Test results taken from PubChem BioAssay (NCI).
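Growth conditions: 96-well plates. Treatment: test compound, 48 hours, 5 concentrations. Analysis: linear interpolation between bracketing concentrations; unreached endpoints set to highest concentration. TGI: concentration producing complete growth inhibition.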

Columns and labels:
Test in all cases: DTP human tumour cell line panel, 48 h
786-0 renal = tested on: 786-0 renal
A498 renal = tested on: A498 renal
A549 NSCLC = tested on: A549 NSCLC
ACHN renal = tested on: ACHN renal
BT-549 breast = tested on: BT-549 breast
CAKI-1 renal = tested on: CAKI-1 renal
CCRF-CEM leukemia = tested on: CCRF-CEM leukemia
DU-145 prostate = tested on: DU-145 prostate
EKVX NSCLC = tested on: EKVX NSCLC
HCC-2998 colon = tested on: HCC-2998 colon
HCT-116 colon = tested on: HCT-116 colon
HCT-15 colon = tested on: HCT-15 colon
HL-60(TB) leukemia = tested on: HL-60(TB) leukemia
HOP-62 NSCLC = tested on: HOP-62 NSCLC
HOP-92 NSCLC = tested on: HOP-92 NSCLC
HS 578T breast = tested on: HS 578T breast
HT29 colon = tested on: HT29 colon
IGROV1 ovarian = tested on: IGROV1 ovarian
K-562 leukemia = tested on: K-562 leukemia
KM12 colon = tested on: KM12 colon
LOX IMVI melanoma = tested on: LOX IMVI melanoma
M14 melanoma = tested on: M14 melanoma
MALME-3M melanoma = tested on: MALME-3M melanoma
MCF7 breast = tested on: MCF7 breast
MDA-MB-231 breast = tested on: MDA-MB-231 breast
MDA-N = tested on: MDA-N
MOLT-4 leukemia = tested on: MOLT-4 leukemia
NCI-H226 lung = tested on: NCI-H226 lung
NCI-H23 lung = tested on: NCI-H23 lung
NCI-H460 lung = tested on: NCI-H460 lung
NCI-H522 lung = tested on: NCI-H522 lung
OVCAR-3 ovarian = tested on: OVCAR-3 ovarian
OVCAR-4 ovarian = tested on: OVCAR-4 ovarian
OVCAR-5 ovarian = tested on: OVCAR-5 ovarian
OVCAR-8 ovarian = tested on: OVCAR-8 ovarian
PC-3 prostate = tested on: PC-3 prostate
RPMI-8226 leukemia = tested on: RPMI-8226 leukemia
RXF 393 renal = tested on: RXF 393 renal
SF-268 CNS = tested on: SF-268 CNS
SF-295 CNS = tested on: SF-295 CNS
SF-539 CNS = tested on: SF-539 CNS
SK-MEL-28 melanoma = tested on: SK-MEL-28 melanoma
SK-MEL-5 melanoma = tested on: SK-MEL-5 melanoma
SN12C renal = tested on: SN12C renal
SNB-19 CNS = tested on: SNB-19 CNS
SNB-75 CNS = tested on: SNB-75 CNS
SR leukemia = tested on: SR leukemia
SW-620 colon = tested on: SW-620 colon
T-47D breast = tested on: T-47D breast
TK-10 renal = tested on: TK-10 renal
U251 CNS = tested on: U251 CNS
UACC-257 melanoma = tested on: UACC-257 melanoma
UO-31 renal = tested on: UO-31 renal
COLO 205 colon = tested on: COLO 205 colon
MDA-MB-435 = tested on: MDA-MB-435
SK-MEL-2 melanoma = tested on: SK-MEL-2 melanoma
UACC-62 melanoma = tested on: UACC-62 melanoma
SK-OV-3 ovarian = tested on: SK-OV-3 ovarian

## COC(=O)c1cc(C)ccc1/C=C1\Cc2cccc(C)c2C1=O
786-0 renal
  TGI: > 100 µM
A498 renal
  TGI: > 100 µM
A549 NSCLC
  TGI: > 100 µM
ACHN renal
  TGI: > 100 µM
BT-549 breast
  TGI: > 100 µM
CAKI-1 renal
  TGI: > 100 µM
CCRF-CEM leukemia
  TGI: > 100 µM
DU-145 prostate
  TGI: > 100 µM
EKVX NSCLC
  TGI: > 100 µM
HCC-2998 colon
  TGI: > 100 µM
HCT-116 colon
  TGI: > 100 µM
HCT-15 colon
  TGI: > 100 µM
HL-60(TB) leukemia
  TGI: > 100 µM
HOP-62 NSCLC
  TGI: > 100 µM
HOP-92 NSCLC
  TGI: > 100 µM
HS 578T breast
  TGI: > 100 µM
HT29 colon
  TGI: > 100 µM
IGROV1 ovarian
  TGI: > 100 µM
K-562 leukemia
  TGI: > 100 µM
KM12 colon
  TGI: > 100 µM
LOX IMVI melanoma
  TGI: 66.2 µM
M14 melanoma
  TGI: > 100 µM
MALME-3M melanoma
  TGI: 96.9 µM
MCF7 breast
  TGI: > 100 µM
MDA-MB-231 breast
  TGI: > 100 µM
MDA-N
  TGI: 61.8 µM
MOLT-4 leukemia
  TGI: > 100 µM
NCI-H226 lung
  TGI: > 100 µM
NCI-H23 lung
  TGI: > 100 µM
NCI-H460 lung
  TGI: > 100 µM
NCI-H522 lung
  TGI: 58.7 µM
OVCAR-3 ovarian
  TGI: > 100 µM
OVCAR-4 ovarian
  TGI: > 100 µM
OVCAR-5 ovarian
  TGI: > 100 µM
OVCAR-8 ovarian
  TGI: 81.4 µM
PC-3 prostate
  TGI: 62.2 µM
RPMI-8226 leukemia
  TGI: > 100 µM
RXF 393 renal
  TGI: > 100 µM
SF-268 CNS
  TGI: > 100 µM
SF-295 CNS
  TGI: > 100 µM
SF-539 CNS
  TGI: > 100 µM
SK-MEL-28 melanoma
  TGI: > 100 µM
SK-MEL-5 melanoma
  TGI: 25.9 µM
SN12C renal
  TGI: 96 µM
SNB-19 CNS
  TGI: > 100 µM
SNB-75 CNS
  TGI: > 100 µM
SR leukemia
  TGI: > 100 µM
SW-620 colon
  TGI: > 100 µM
T-47D breast
  TGI: > 100 µM
TK-10 renal
  TGI: > 100 µM
U251 CNS
  TGI: > 100 µM
UACC-257 melanoma
  TGI: > 100 µM
UO-31 renal
  TGI: > 100 µM

## CN1CCN(C(=S)N(C(=O)c2ccco2)C2CCCCC2)CC1
786-0 renal
  TGI: > 100 µM
A549 NSCLC
  TGI: > 100 µM
ACHN renal
  TGI: > 100 µM
BT-549 breast
  TGI: > 100 µM
CCRF-CEM leukemia
  TGI: > 100 µM
COLO 205 colon
  TGI: > 100 µM
DU-145 prostate
  TGI: > 100 µM
HCC-2998 colon
  TGI: > 100 µM
HCT-15 colon
  TGI: > 100 µM
HOP-92 NSCLC
  TGI: > 100 µM
HS 578T breast
  TGI: > 100 µM
HT29 colon
  TGI: > 100 µM
IGROV1 ovarian
  TGI: > 100 µM
K-562 leukemia
  TGI: > 100 µM
KM12 colon
  TGI: > 100 µM
LOX IMVI melanoma
  TGI: > 100 µM
M14 melanoma
  TGI: > 100 µM
MALME-3M melanoma
  TGI: > 100 µM
MCF7 breast
  TGI: > 100 µM
MDA-MB-231 breast
  TGI: > 100 µM
MDA-MB-435
  TGI: > 100 µM
MDA-N
  TGI: > 100 µM
NCI-H226 lung
  TGI: > 100 µM
NCI-H23 lung
  TGI: > 100 µM
NCI-H460 lung
  TGI: > 100 µM
NCI-H522 lung
  TGI: > 100 µM
OVCAR-3 ovarian
  TGI: > 100 µM
OVCAR-4 ovarian
  TGI: > 100 µM
OVCAR-5 ovarian
  TGI: > 100 µM
OVCAR-8 ovarian
  TGI: > 100 µM
RPMI-8226 leukemia
  TGI: > 100 µM
RXF 393 renal
  TGI: > 100 µM
SF-268 CNS
  TGI: > 100 µM
SF-295 CNS
  TGI: > 100 µM
SK-MEL-2 melanoma
  TGI: > 100 µM
SK-MEL-28 melanoma
  TGI: > 100 µM
SK-MEL-5 melanoma
  TGI: > 100 µM
SN12C renal
  TGI: > 100 µM
SNB-19 CNS
  TGI: > 100 µM
SNB-75 CNS
  TGI: > 100 µM
SR leukemia
  TGI: > 100 µM
SW-620 colon
  TGI: > 100 µM
T-47D breast
  TGI: > 100 µM
TK-10 renal
  TGI: > 100 µM
U251 CNS
  TGI: > 100 µM
UACC-257 melanoma
  TGI: > 100 µM
UACC-62 melanoma
  TGI: > 100 µM
UO-31 renal
  TGI: > 100 µM

## CC(C)c1ccc(/C=C2\N=C(c3ccc([N+](=O)[O-])cc3)OC2=O)cc1
786-0 renal
  TGI: > 100 µM
A498 renal
  TGI: > 100 µM
A549 NSCLC
  TGI: > 100 µM
ACHN renal
  TGI: > 100 µM
BT-549 breast
  TGI: > 100 µM
CAKI-1 renal
  TGI: > 100 µM
CCRF-CEM leukemia
  TGI: > 100 µM
COLO 205 colon
  TGI: > 100 µM
DU-145 prostate
  TGI: > 100 µM
EKVX NSCLC
  TGI: > 100 µM
HCC-2998 colon
  TGI: > 100 µM
HCT-116 colon
  TGI: > 100 µM
HCT-15 colon
  TGI: > 100 µM
HL-60(TB) leukemia
  TGI: > 100 µM
HOP-62 NSCLC
  TGI: > 100 µM
HOP-92 NSCLC
  TGI: > 100 µM
HS 578T breast
  TGI: > 100 µM
HT29 colon
  TGI: > 100 µM
IGROV1 ovarian
  TGI: > 100 µM
K-562 leukemia
  TGI: > 100 µM
KM12 colon
  TGI: > 100 µM
LOX IMVI melanoma
  TGI: > 100 µM
M14 melanoma
  TGI: > 100 µM
MALME-3M melanoma
  TGI: > 100 µM
MCF7 breast
  TGI: > 100 µM
MDA-MB-231 breast
  TGI: > 100 µM
MDA-MB-435
  TGI: > 100 µM
MDA-N
  TGI: > 100 µM
MOLT-4 leukemia
  TGI: > 100 µM
NCI-H226 lung
  TGI: > 100 µM
NCI-H23 lung
  TGI: > 100 µM
NCI-H460 lung
  TGI: > 100 µM
NCI-H522 lung
  TGI: > 100 µM
OVCAR-3 ovarian
  TGI: > 100 µM
OVCAR-4 ovarian
  TGI: > 100 µM
OVCAR-5 ovarian
  TGI: > 100 µM
OVCAR-8 ovarian
  TGI: > 100 µM
PC-3 prostate
  TGI: > 100 µM
RPMI-8226 leukemia
  TGI: > 100 µM
RXF 393 renal
  TGI: > 100 µM
SF-268 CNS
  TGI: > 100 µM
SF-295 CNS
  TGI: > 100 µM
SF-539 CNS
  TGI: > 100 µM
SK-MEL-2 melanoma
  TGI: > 100 µM
SK-MEL-28 melanoma
  TGI: > 100 µM
SK-MEL-5 melanoma
  TGI: > 100 µM
SK-OV-3 ovarian
  TGI: > 100 µM
SN12C renal
  TGI: > 100 µM
SNB-19 CNS
  TGI: > 100 µM
SNB-75 CNS
  TGI: > 100 µM
SR leukemia
  TGI: > 100 µM
SW-620 colon
  TGI: > 100 µM
T-47D breast
  TGI: > 100 µM
TK-10 renal
  TGI: > 100 µM
U251 CNS
  TGI: > 100 µM
UACC-257 melanoma
  TGI: > 100 µM
UACC-62 melanoma
  TGI: > 100 µM
